As a reminder, the Ki is a dissociation constant, usually derived from enzyme kinetics or from competition with a known ligand. One may read the half-life as the time in which the quantity being followed falls by half. What is called CL/F is clearance divided by bioavailability, as obtained after extravascular dosing. Usually IC50 stands for the point on the concentration scale where inhibition reaches its midpoint. Low values mean inhibition by little substance, high ones a need for much substance.

The source of these data is ChEMBL document CHEMBL4346722, “Recent progress on the discovery of P2Y14 receptor antagonists” (Eur J Med Chem, 2019).

Data set [1] in a line: Inhibition of chimpanzee P2Y14 receptor. Also noted: species or system Pan troglodytes.
Data set [2] can be described thus: Half life in C57BL/6 mouse at 50 mg/kg, po. It is filed as ADME, organism-based. The settings on record: in vivo.
The target in data set [3] is T1, P2Y purinoceptor 14 (Mus musculus, UniProt Q9ESG6).
T1 sequence (Q9ESG6 whole entry): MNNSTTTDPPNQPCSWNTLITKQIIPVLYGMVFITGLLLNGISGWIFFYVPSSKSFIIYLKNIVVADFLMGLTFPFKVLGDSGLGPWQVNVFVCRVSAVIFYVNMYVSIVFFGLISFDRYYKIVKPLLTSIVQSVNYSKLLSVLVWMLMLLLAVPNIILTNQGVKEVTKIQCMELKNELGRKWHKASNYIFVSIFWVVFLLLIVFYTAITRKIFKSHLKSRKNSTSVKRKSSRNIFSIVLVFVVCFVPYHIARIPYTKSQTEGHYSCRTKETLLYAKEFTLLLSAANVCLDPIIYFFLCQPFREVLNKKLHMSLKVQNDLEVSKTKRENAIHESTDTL
Kind of data set: Inhibition of mouse P2Y14 receptor.

Data set [4] concerns the target T1, P2Y purinoceptor 14. Kind of data set: Inhibition of mouse P2Y14 receptor in presence of 2% HSA.
Data set [5] is described as follows: Clearance in C57BL/6 mouse at 50 mg/kg, po. The settings on record: in vivo. Type of data set: ADME, organism-based.

In data set [1], `O=C(O)c1cc(-c2ccc(C3CCNCC3)cc2)c2ccc(-c3ccc(C(F)(F)F)cc3)cc2c1` [PPTN] came in with an inhibitory constant (Ki) of 1.9 nM.
As for `O=C(O)c1cc(-c2ccc([C@@H](O)C(F)F)cc2)c2ccc(-c3ccc(C(F)(F)F)cc3)cc2c1`, the half-life in data set [2] is 180 min. Also, the inhibition constant Ki on P2Y purinoceptor 14 [3] stood at 4 nM; on P2Y purinoceptor 14 [4] it was 1290 nM. Moreover, the apparent clearance (CL/F) in data set [5] is 1.6 mL/min/kg.
In data set [1], `Cc1cc(F)cc(C)c1COc1ccc2c(-c3ccsc3)cc(C(=O)O)cc2c1` showed an IC50 of 4 nM and a Ki of 14 nM.
